Measured values reported in patent US12233161B1, “Lipids and lipid nanoparticle formulations” (LONGUIDE BIOPHARMA CORPORATION, priority 2024, dated 2025).
Each block holds one molecule with its values, some of them ahead of it.

Experiments:
[1] = tested on: mice; assay: In vivo delivery of FLuc-mRNA lipid nanoparticles in mice, in vivo imaging (IVIS)
Outline: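 Mice (n=3) received about 75 μL FLuc-mRNA LNP per mouse intramuscularly (rectus femoris), intravenously (tail vein), intraperitoneally or subcutaneously (back). After injection, D-luciferin (200 μL, 15 mg/mL) was given i.p. 10-15 min before IVIS imaging.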

[2] = Particle size and PDI of nucleic acid lipid nanoparticle preparations by dynamic light scattering; format: physicochemical
Outline: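 LNP solution (about 0.04 mg/mL mRNA before dilution) was diluted in ultrapure water and mixed by gentle pipetting. Particle size and PDI were then measured by dynamic light scattering.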

[3] = Potential characterization of nucleic acid lipid nanoparticle preparations; format: physicochemical
Description: 20 μL of the nucleic acid lipid nanoparticle solution (containing about 0.04 mg/mL mRNA) was taken and added with 780 μL of ultrapure water, used a pipette tip to gently blow and mix, and the potential of the nanopreparation was detected by Malvern particle sizer (model ZEN3700).
27.5 μL nucleic acid lipid nanoparticle solution (containing about 0.04 mg/mL mRNA) was taken and added with 200 μL ultrapure water. A pipette tip was used to gently blow the sample and mix well. The particle size of the nanopreparation was detected by Malvern Dynamic Light Scattering Instrument (Malvern Instruments Ltd., ZEN3700, UK). After the detection, the sample was recovered to an EP tube, and 600 μL of ultrapure water was added, gently blown with a pipette tip, and the potential of the nanopreparation was measured by a Malvern particle size meter.

[4] = DSPE-PEG5000:DSPC:Chol:compound 1.40:11.15:38.95:48.50, N/P 30
[5] = IM, DMG-PEG2000:DSPC:Chol:compound 1.40:11.15:38.95:48.50, N/P 20, Fluc-mRNA
[6] = IV, organ not given, DMG-PEG2000:DSPC:Chol:compound 1.40:11.15:38.95:48.50, N/P 20, Fluc-mRNA
[7] = DMG-PEG2000:DSPC:Chol:compound 1.40:11.15:38.95:48.50, N/P 20
[8] = IM, DMG-PEG2000:DSPC:Chol:compound 1.40:11.15:38.95:48.50, N/P 30, Fluc-mRNA
[9] = IV, body, DMG-PEG2000:DSPC:Chol:compound 1.40:11.15:38.95:48.50, N/P 30, Fluc-mRNA
[10] = IV, liver, DMG-PEG2000:DSPC:Chol:compound 1.40:11.15:38.95:48.50, N/P 30
[11] = IV, liver, DMG-PEG2000:DSPC:Chol:compound 1.40:11.15:38.95:48.50, N/P 30, Fluc-mRNA
[12] = IV, lung, DMG-PEG2000:DSPC:Chol:compound 1.40:11.15:38.95:48.50, N/P 30
[13] = IV, lung, DMG-PEG2000:DSPC:Chol:compound 1.40:11.15:38.95:48.50, N/P 30, Fluc-mRNA
[14] = IV, spleen, DMG-PEG2000:DSPC:Chol:compound 1.40:11.15:38.95:48.50, N/P 30
[15] = IV, spleen, DMG-PEG2000:DSPC:Chol:compound 1.40:11.15:38.95:48.50, N/P 30, Fluc-mRNA
[16] = DMG-PEG2000:DSPC:Chol:compound 1.00:10.00:33.00:56.00, N/P 42
[17] = DMG-PEG2000:DSPC:Chol:compound 1.40:11.15:38.95:48.50, N/P 30
[18] = IV, organ not given, DMG-PEG2000:DSPC:Chol:compound 1.40:11.15:38.95:48.50, N/P 30, Fluc-mRNA
[19] = DMG-PEG2000:DPPC:Chol:compound 1.40:11.15:38.95:48.50, N/P 30
[20] = DMG-PEG2000:DSPC:Chol:Lipid 1.00:16.00:48.00:35.00, N/P 18, IV, liver
[21] = DMG-PEG2000:DSPC:Chol:Lipid 1.00:16.00:48.00:35.00, N/P 18, IV, lung
[22] = DMG-PEG2000:DSPC:Chol:Lipid 1.00:16.00:48.00:35.00, N/P 18, IV, spleen
[23] = DMG-PEG2000:DSPC:Chol:Lipid 1.50:16.00:17.50:65.00, N/P 45, IV, liver
[24] = DMG-PEG2000:DSPC:Chol:Lipid 1.50:16.00:17.50:65.00, N/P 45, IV, lung
[25] = DMG-PEG2000:DSPC:Chol:Lipid 1.50:16.00:17.50:65.00, N/P 45, IV, spleen
[26] = DMG-PEG2000:DSPC:Chol:Lipid 1.00:16.00:48.00:35.00, N/P 18, mRNA LNP
[27] = DMG-PEG2000:DSPC:Chol:Lipid 1.50:4.00:69.50:25.00, N/P 18, mRNA LNP
[28] = DMG-PEG2000:DSPC:Chol:Lipid 1.50:16.00:17.50:65.00, N/P 45, mRNA LNP
[29] = DMG-PEG2000:DSPC:Chol:Lipid 1.77:14.07:49.16:35.00, N/P 30, mRNA LNP

SMILES: CCCCCCCCCCCCN(C)C(=O)C(O)CN(C)CCN(C)CCN(C)CC(O)C(=O)N(C)CCCCCCCCCCCC (stereo not shown) [Compound L0341]
IVIS ([1]; IM, DSPE-PEG5000:DSPC:Chol:compound 1.40:11.15:38.95:48.50, N/P 30, Fluc-mRNA): 9.99E+04 | IVIS ([1]; IV, organ not given, DSPE-PEG5000:DSPC:Chol:compound 1.40:11.15:38.95:48.50, N/P 30, Fluc-mRNA): 4.10E+05 | PDI [2, 4]: 0.18 | Particle size (nm) [2, 4]: 212.5 nm | Zeta potential (mV) [3, 4]: 7.85 mV

SMILES: CCCCCCC(CCCCCC)C(=O)OCCCCCCOC(=O)C(O)CN(C)CCN(C)CCN(C)CC(O)C(=O)OCCCCCCOC(=O)C(CCCCCC)CCCCCC (stereo not shown) [Compound L0291]
IVIS [1, 8]: 1.87E+07 | IVIS ([1]; IV, body, DMG-PEG2000:DSPC:Chol:compound 1.00:10.00:33.00:56.00, N/P 42, Fluc-mRNA): 2.60E+07 | IVIS [1, 9]: 1.83E+07 | % of organ targeting ([1]; IV, liver, DMG-PEG2000:DSPC:Chol:compound 1.00:10.00:33.00:56.00, N/P 42): 5.08% | IVIS ([1]; IV, liver, DMG-PEG2000:DSPC:Chol:compound 1.00:10.00:33.00:56.00, N/P 42, Fluc-mRNA): 1.32E+06 | % of organ targeting [1, 10]: 61.07% | IVIS [1, 11]: 3.30E+06 | % of organ targeting ([1]; IV, lung, DMG-PEG2000:DSPC:Chol:compound 1.00:10.00:33.00:56.00, N/P 42): 5.76% | IVIS ([1]; IV, lung, DMG-PEG2000:DSPC:Chol:compound 1.00:10.00:33.00:56.00, N/P 42, Fluc-mRNA): 1.50E+06 | % of organ targeting [1, 12]: 3.97% | IVIS [1, 13]: 2.14E+05 | % of organ targeting ([1]; IV, spleen, DMG-PEG2000:DSPC:Chol:compound 1.00:10.00:33.00:56.00, N/P 42): 89.17% | IVIS ([1]; IV, spleen, DMG-PEG2000:DSPC:Chol:compound 1.00:10.00:33.00:56.00, N/P 42, Fluc-mRNA): 2.32E+07 | % of organ targeting [1, 14]: 34.97% | IVIS [1, 15]: 1.89E+06 | PDI [2, 16]: 0.13 | Particle size (nm) [2, 16]: 221.70 nm | PDI [2, 17]: 0.17 | Particle size (nm) [2, 17]: 259.67 nm | Zeta potential (mV) [3, 17]: 15.07 mV

SMILES: CCCCCCCCCCCCNC(=O)C(O)CNCCCN(C)CCCNCC(O)C(=O)NCCCCCCCCCCCC (stereo not shown) [Compound L0289]
IVIS [1, 8]: 1.24E+05 | IVIS [1, 18]: 1.63E+05 | PDI [2, 17]: 0.09 | Particle size (nm) [2, 17]: 132.40 nm | Zeta potential (mV) [3, 17]: 11.00 mV

SMILES: CCCCCCCCCCCCN(C)C(=O)C(O)CN(C)CCCN(C)CCCN(C)CC(O)C(=O)N(C)CCCCCCCCCCCC (stereo not shown) [Compound L0343]
IVIS ([1]; IM, DMG-PEG2000:DPPC:Chol:compound 1.40:11.15:38.95:48.50, N/P 30, Fluc-mRNA): 9.39E+04 | IVIS ([1]; IV, organ not given, DMG-PEG2000:DPPC:Chol:compound 1.40:11.15:38.95:48.50, N/P 30, Fluc-mRNA): 2.20E+05 | PDI [2, 19]: 0.24 | Particle size (nm) [2, 19]: 116.17 nm | Zeta potential (mV) [3, 19]: 4.33 mV

More lines, main results first:

PDI [2, 7]: 0.48 | Particle size (nm) [2, 7]: 207.73 nm | Zeta potential (mV) [3, 7]: −0.61 mV
SMILES: CCCCCCCCCCOC(=O)C(O)CN(CCCCCCCN(CC(O)C(=O)OCCCCCCCCCC)CC(O)C(=O)OCCCCCCCCCC)CC(O)C(=O)OCCCCCCCCCC (stereo not shown) [Compound L0321]
IVIS [1, 5]: 1.37E+05 | IVIS [1, 6]: 2.11E+05

PDI [2, 17]: 0.2 | Particle size (nm) [2, 17]: 102.07 nm | Zeta potential (mV) [3, 17]: 28.07 mV
SMILES: CCCCCCCCCCOC(=O)C(O)CN(CCN(C)CCN(CC(O)C(=O)OCCCCCCCCCC)CC(O)C(=O)OCCCCCCCCCC)CC(O)C(=O)OCCCCCCCCCC (stereo not shown) [Compound L0337]
IVIS [1, 8]: 3.70E+05 | IVIS [1, 9]: 2.05E+07 | % of organ targeting [1, 10]: 8.23% | IVIS [1, 11]: 2.66E+06 | % of organ targeting [1, 12]: 2.94% | IVIS [1, 13]: 9.51E+05 | % of organ targeting [1, 14]: 88.83% | IVIS [1, 15]: 2.87E+07

PDI [2, 7]: 0.26 | Particle size (nm) [2, 7]: 559.3 nm | Zeta potential (mV) [3, 7]: 11.33 mV
SMILES: CCCCCCCCCCOC(=O)C(O)CN(CCOCCN(CC(O)C(=O)OCCCCCCCCCC)CC(O)C(=O)OCCCCCCCCCC)CC(O)C(=O)OCCCCCCCCCC (stereo not shown) [Compound L0314]
IVIS [1, 5]: 3.31E+05 | IVIS [1, 6]: 2.35E+05

PDI [2, 17]: 0.12 | Particle size (nm) [2, 17]: 125.9 nm | Zeta potential (mV) [3, 17]: 18.97 mV
SMILES: CCCCCCOC(C)OCCCCCCOC(=O)C(O)CN(CCCN(C)CCCN(CC(O)C(=O)OCCCCCCOC(C)OCCCCCC)CC(O)C(=O)OCCCCCCOC(C)OCCCCCC)CC(O)C(=O)OCCCCCCOC(C)OCCCCCC (stereo not shown) [Compound L0316]
IVIS [1, 8]: 4.46E+06 | IVIS [1, 18]: 3.53E+08

PDI [2, 7]: 0.10 | Particle size (nm) [2, 7]: 132.67 nm
SMILES: CCCCCCCCCCCCNC(=O)C(O)CN(CCCCCCCN(CC(O)C(=O)NCCCCCCCCCCCC)CC(O)C(=O)NCCCCCCCCCCCC)CC(O)C(=O)NCCCCCCCCCCCC (stereo not shown) [Compound L0308]
IVIS [1, 5]: 9.07E+05 | IVIS [1, 6]: 1.99E+05

PDI [2, 26]: 0.15 ± 0.01 | Particle size [2, 26]: 93.07 ± 0.26 nm | PDI [2, 27]: 0.12 ± 0.00 | Particle size [2, 27]: 88.12 ± 0.68 nm | PDI [2, 28]: 0.47 ± 0.04 | Particle size [2, 28]: 232.87 ± 6.17 nm | PDI [2, 29]: 0.13 ± 0.01 | Particle size [2, 29]: 79.38 ± 0.91 nm
SMILES: CCCCCCCCCCCCNC(=O)C(O)CN(CCCN(CCCCCCO)CCCN(CC(O)C(=O)NCCCCCCCCCCCC)CC(O)C(=O)NCCCCCCCCCCCC)CC(O)C(=O)NCCCCCCCCCCCC (stereo not shown) [Compound L0274]
IVIS ([1]; DMG-PEG2000:DSPC:Chol:Lipid 1.00:16.00:48.00:35.00, N/P 18, IV, body): 3.12 × 10^8 | % of organ targeting [1, 20]: 29.22% | IVIS [1, 20]: 4.76 × 10^7 | % of organ targeting [1, 21]: 8.16% | IVIS [1, 21]: 1.33 × 10^7 | % of organ targeting [1, 22]: 62.62% | IVIS [1, 22]: 1.02 × 10^8 | IVIS ([1]; DMG-PEG2000:DSPC:Chol:Lipid 1.50:4.00:69.50:25.00, N/P 18, IM, whole body scan): 6.20 × 10^6 | IVIS ([1]; DMG-PEG2000:DSPC:Chol:Lipid 1.50:16.00:17.50:65.00, N/P 45, IV, body): 1.52 × 10^8 | % of organ targeting [1, 23]: 1.10% | IVIS [1, 23]: 4.17 × 10^6 | % of organ targeting [1, 24]: 84.18% | IVIS [1, 24]: 3.19 × 10^8 | % of organ targeting [1, 25]: 14.72% | IVIS [1, 25]: 5.58 × 10^7 | IVIS ([1]; DMG-PEG2000:DSPC:Chol:Lipid 1.77:14.07:49.16:35.00, N/P 30, IM, whole body scan): 1.23 × 10^7 | in vivo delivery efficiency as compared to the benchmark compound SM102 ([1]; certain formulations, Table 2): superior in vivo delivery efficiency | tissue-targeting specificity (lung vs spleen depending on molar percentage of compound) ([1]; certain formulations, Table 2): strong tissue-targeting specificity
